{
  "source": "patent US20170326125A1",
  "about": "“MULTISUBSTITUTED AROMATIC COMPOUNDS AS INHIBITORS OF THROMBIN” (VERSEON CORPORATION, priority 2016, published 2017)",
  "data": [
    {"target": "T1, Human thrombin (Homo sapiens, UniProt P00734)", "T1 construct": "purchased Haematologic Technologies Inc", "assay": "Inhibition of the protease activity of thrombin (chromogenic substrate S-2238)", "type": "biochemical", "details": "inhibition of the protease activity of thrombin", "units": {"IC50": "nM"}, "values": [
      {"smiles": "O=C(c1ccsc1)n1nc(-c2ccccc2)nc1NCc1ccc(F)cc1", "note": "[Cmpd 222, N-[(4-fluorophenyl)methyl]-3-phenyl-1-[(thiophen-3-yl)carbonyl]-1H-1,2,4-triazol-5-amine]", "IC50": "< 100"},
      {"smiles": "O=C(c1cn(-c2ccccn2)nc1NCc1ccc(F)cc1)N1CCCCC1", "note": "[Cmpd 225, N-[(4-fluorophenyl)methyl]-4-[(piperidin-1-yl)carbonyl]-1-(pyridin-2-yl)-1H-pyrazol-3-amine]", "IC50": "> 1000"},
      {"smiles": "COc1ccc(CNc2nc(-c3ccccn3)nn2C(=O)c2cccs2)cc1", "note": "[Cmpd 226, N-[(4-methoxyphenyl)methyl]-3-(pyridin-2-yl)-1-[(thiophen-2-yl)carbonyl]-1H-1,2,4-triazol-5-amine]", "IC50": "> 1000"},
      {"smiles": "COc1ccc(CNc2nc(-c3ccccn3)nn2C(=O)c2ccsc2)cc1", "note": "[Cmpd 227, N-[(4-methoxyphenyl)methyl]-3-(pyridin-2-yl)-1-[(thiophen-3-yl)carbonyl]-1H-1,2,4-triazol-5-amine]", "IC50": "100 to 1000"},
      {"smiles": "COc1ccc(CNc2nc(-c3cccnc3)nn2C(=O)c2ccsc2)cc1", "note": "[Cmpd 228, N-[(4-methoxyphenyl)methyl]-3-(pyridin-3-yl)-1-[(thiophen-3-yl)carbonyl]-1H-1,2,4-triazol-5-amine]", "IC50": "> 1000"},
      {"smiles": "COc1ccc(CNc2nc(-c3ccncc3)nn2C(=O)c2cccs2)cc1", "note": "[Cmpd 229, N-[(4-methoxyphenyl)methyl]-3-(pyridin-4-yl)-1-[(thiophen-2-yl)carbonyl]-1H-1,2,4-triazol-5-amine]", "IC50": "> 1000"},
      {"smiles": "COc1ccc(CNc2nc(-c3ccncc3)nn2C(=O)c2ccsc2)cc1", "note": "[Cmpd 230, N-[(4-methoxyphenyl)methyl]-3-(pyridin-4-yl)-1-[(thiophen-3-yl)carbonyl]-1H-1,2,4-triazol-5-amine]", "IC50": "100 to 1000"},
      {"smiles": "O=C(c1cccc2c1OC(F)(F)O2)n1nc(-c2ccccn2)nc1NCc1ccccc1", "note": "[Cmpd 231, N-benzyl-1-[(2,2-difluoro-2H-1,3-benzodioxol-4-yl)carbonyl]-3-(pyridin-2-yl)-1H-1,2,4-triazol-5-amine]", "IC50": "> 1000"},
      {"smiles": "O=C(c1cccc2c1OCCO2)n1nc(-c2ccccn2)nc1NCc1ccccc1", "note": "[Cmpd 232, N-benzyl-1-[(2,3-dihydro-1,4-benzodioxin-5-yl)carbonyl]-3-(pyridin-2-yl)-1H-1,2,4-triazol-5-amine]", "IC50": "< 100"},
      {"smiles": "COc1cccc(C(=O)n2nc(-c3ccccn3)nc2NCc2ccccc2)c1OC", "note": "[Cmpd 233, N-benzyl-1-[(2,3-dimethoxyphenyl)carbonyl]-3-(pyridin-2-yl)-1H-1,2,4-triazol-5-amine]", "IC50": "< 100"},
      {"smiles": "COc1ccc(C(=O)n2nc(-c3ccccc3F)cc2NCc2ccccc2)c(OC)c1", "note": "[Cmpd 234, N-benzyl-1-[(2,4-dimethoxyphenyl)carbonyl]-3-(2-fluorophenyl)-1H-pyrazol-5-amine]", "IC50": "> 1000"},
      {"smiles": "COc1ccc(C(=O)n2nc(-c3ccccn3)nc2NCc2ccccc2)c(OC)c1", "note": "[Cmpd 235, N-benzyl-1-[(2,4-dimethoxyphenyl)carbonyl]-3-(pyridin-2-yl)-1H-1,2,4-triazol-5-amine]", "IC50": "< 100"},
      {"smiles": "COc1ccc(C(=O)n2nc(-c3ccccn3)cc2NCc2ccccc2)c(OC)c1", "note": "[Cmpd 236, N-benzyl-1-[(2,4-dimethoxyphenyl)carbonyl]-3-(pyridin-2-yl)-1H-pyrazol-5-amine]", "IC50": "100 to 1000"},
      {"smiles": "Cc1ccc(C(=O)n2nc(-c3ccccn3)nc2NCc2ccccc2)c(C)c1", "note": "[Cmpd 237, N-benzyl-1-[(2,4-dimethylphenyl)carbonyl]-3-(pyridin-2-yl)-1H-1,2,4-triazol-5-amine]", "IC50": "100 to 1000"},
      {"smiles": "O=C(c1c(Cl)cccc1Cl)n1nc(-c2ccccn2)nc1NCc1ccccc1", "note": "[Cmpd 238, N-benzyl-1-[(2,6-dichlorophenyl)carbonyl]-3-(pyridin-2-yl)-1H-1,2,4-triazol-5-amine]", "IC50": "> 1000"},
      {"smiles": "O=C(c1c(F)cccc1F)n1nc(-c2ccccn2)nc1NCc1ccccc1", "note": "[Cmpd 239, N-benzyl-1-[(2,6-difluorophenyl)carbonyl]-3-(pyridin-2-yl)-1H-1,2,4-triazol-5-amine]", "IC50": "100 to 1000"},
      {"smiles": "O=C(c1ccccc1Br)n1nc(-c2ccccn2)nc1NCc1ccccc1", "note": "[Cmpd 240, N-benzyl-1-[(2-bromophenyl)carbonyl]-3-(pyridin-2-yl)-1H-1,2,4-triazol-5-amine]", "IC50": "< 100"},
      {"smiles": "O=C(c1ccccc1Br)n1nc(-c2ccccn2)cc1NCc1ccccc1", "note": "[Cmpd 241, N-benzyl-1-[(2-bromophenyl)carbonyl]-3-(pyridin-2-yl)-1H-pyrazol-5-amine]", "IC50": "100 to 1000"},
      {"smiles": "O=C(c1ccccc1Cl)n1nc(-c2ccccc2F)cc1NCc1ccccc1", "note": "[Cmpd 242, N-benzyl-1-[(2-chlorophenyl)carbonyl]-3-(2-fluorophenyl)-1H-pyrazol-5-amine]", "IC50": "100 to 1000"},
      {"smiles": "O=C(c1ccccc1Cl)n1nc(-c2ccccn2)cc1NCc1ccccc1", "note": "[Cmpd 244, N-benzyl-1-[(2-chlorophenyl)carbonyl]-3-(pyridin-2-yl)-1H-pyrazol-5-amine]", "IC50": "100 to 1000"},
      {"smiles": "O=C(c1ccccc1Cl)n1nc(-c2ccncc2)nc1NCc1ccccc1", "note": "[Cmpd 245, N-benzyl-1-[(2-chlorophenyl)carbonyl]-3-(pyridin-4-yl)-1H-1,2,4-triazol-5-amine]", "IC50": "< 100"},
      {"smiles": "CCc1ccccc1C(=O)n1nc(-c2ccccn2)nc1NCc1ccccc1", "note": "[Cmpd 246, N-benzyl-1-[(2-ethylphenyl)carbonyl]-3-(pyridin-2-yl)-1H-1,2,4-triazol-5-amine]", "IC50": "100 to 1000"},
      {"smiles": "CCc1ccccc1C(=O)n1nc(-c2ccccn2)cc1NCc1ccccc1", "note": "[Cmpd 247, N-benzyl-1-[(2-ethylphenyl)carbonyl]-3-(pyridin-2-yl)-1H-pyrazol-5-amine]", "IC50": "> 1000"},
      {"smiles": "COc1ccc(C(=O)n2nc(-c3ccccn3)nc2NCc2ccccc2)c(F)c1", "note": "[Cmpd 248, N-benzyl-1-[(2-fluoro-4-methoxyphenyl)carbonyl]-3-(pyridin-2-yl)-1H-1,2,4-triazol-5-amine]", "IC50": "< 100"},
      {"smiles": "Cc1ccc(C(=O)n2nc(-c3ccccn3)nc2NCc2ccccc2)c(F)c1", "note": "[Cmpd 249, N-benzyl-1-[(2-fluoro-4-methylphenyl)carbonyl]-3-(pyridin-2-yl)-1H-1,2,4-triazol-5-amine]", "IC50": "< 100"},
      {"smiles": "O=C(c1ccccc1F)n1nc(-c2ccccn2)cc1NCc1ccccc1", "note": "[Cmpd 251, N-benzyl-1-[(2-fluorophenyl)carbonyl]-3-(pyridin-2-yl)-1H-pyrazol-5-amine]", "IC50": "< 100"},
      {"smiles": "COc1cc(C)ccc1C(=O)n1nc(-c2ccccn2)nc1NCc1ccccc1", "note": "[Cmpd 253, N-benzyl-1-[(2-methoxy-4-methylphenyl)carbonyl]-3-(pyridin-2-yl)-1H-1,2,4-triazol-5-amine]", "IC50": "< 100"},
      {"smiles": "COc1ccccc1C(=O)n1nc(-c2cccnn2)nc1NCc1ccccc1", "note": "[Cmpd 254, N-benzyl-1-[(2-methoxyphenyl)carbonyl]-3-(pyridazin-3-yl)-1H-1,2,4-triazol-5-amine]", "IC50": "< 100"},
      {"smiles": "COc1ccccc1C(=O)n1nc(-c2ccccn2)cc1NCc1ccccc1", "note": "[Cmpd 256, N-benzyl-1-[(2-methoxyphenyl)carbonyl]-3-(pyridin-2-yl)-1H-pyrazol-5-amine]", "IC50": "100 to 1000"},
      {"smiles": "COc1ccccc1C(=O)n1nc(-c2ccncc2)nc1NCc1ccccc1", "note": "[Cmpd 257, N-benzyl-1-[(2-methoxyphenyl)carbonyl]-3-(pyridin-4-yl)-1H-1,2,4-triazol-5-amine]", "IC50": "< 100"},
      {"smiles": "COc1ccccc1C(=O)n1nc(-c2cccs2)nc1NCc1ccccc1", "note": "[Cmpd 258, N-benzyl-1-[(2-methoxyphenyl)carbonyl]-3-(thiophen-2-yl)-1H-1,2,4-triazol-5-amine]", "IC50": "< 100"},
      {"smiles": "Cc1ccccc1C(=O)n1nc(-c2ccccn2)nc1NCc1ccccc1", "note": "[Cmpd 259, N-benzyl-1-[(2-methylphenyl)carbonyl]-3-(pyridin-2-yl)-1H-1,2,4-triazol-5-amine]", "IC50": "< 100"},
      {"smiles": "Cc1ccccc1C(=O)n1nc(-c2ccccn2)cc1NCc1ccccc1", "note": "[Cmpd 260, N-benzyl-1-[(2-methylphenyl)carbonyl]-3-(pyridin-2-yl)-1H-pyrazol-5-amine]", "IC50": "> 1000"},
      {"smiles": "COc1cccc(C(=O)n2nc(-c3ccccn3)nc2NCc2ccccc2)c1", "note": "[Cmpd 261, N-benzyl-1-[(3-methoxyphenyl)carbonyl]-3-(pyridin-2-yl)-1H-1,2,4-triazol-5-amine]", "IC50": "< 100"},
      {"smiles": "O=C(c1ccc(Cl)cc1)n1nc(-c2ccccn2)nc1NCc1ccccc1", "note": "[Cmpd 262, N-benzyl-1-[(4-chlorophenyl)carbonyl]-3-(pyridin-2-yl)-1H-1,2,4-triazol-5-amine]", "IC50": "< 100"},
      {"smiles": "O=C(c1ccc(Cl)cc1)n1nc(-c2ccncc2)nc1NCc1ccccc1", "note": "[Cmpd 263, N-benzyl-1-[(4-chlorophenyl)carbonyl]-3-(pyridin-4-yl)-1H-1,2,4-triazol-5-amine]", "IC50": "< 100"},
      {"smiles": "COc1ccc(C(=O)n2nc(-c3ccccn3)nc2NCc2ccccc2)c(C)c1", "note": "[Cmpd 264, N-benzyl-1-[(4-methoxy-2-methylphenyl)carbonyl]-3-(pyridin-2-yl)-1H-1,2,4-triazol-5-amine]", "IC50": "< 100"},
      {"smiles": "COc1ccc(C(=O)n2nc(-c3ccccn3)nc2NCc2ccccc2)cc1", "note": "[Cmpd 265, N-benzyl-1-[(4-methoxyphenyl)carbonyl]-3-(pyridin-2-yl)-1H-1,2,4-triazol-5-amine]", "IC50": "< 100"},
      {"smiles": "O=C(c1ccco1)n1nc(-c2ccncc2)nc1NCc1ccccc1", "note": "[Cmpd 266, N-benzyl-1-[(furan-2-yl)carbonyl]-3-(pyridin-4-yl)-1H-1,2,4-triazol-5-amine]", "IC50": "< 100"},
      {"smiles": "O=C(c1ccoc1)n1nc(-c2ccccn2)nc1NCc1ccccc1", "note": "[Cmpd 267, N-benzyl-1-[(furan-3-yl)carbonyl]-3-(pyridin-2-yl)-1H-1,2,4-triazol-5-amine]", "IC50": "< 100"},
      {"smiles": "O=C(c1ccoc1)n1nc(-c2ccncc2)nc1NCc1ccccc1", "note": "[Cmpd 268, N-benzyl-1-[(furan-3-yl)carbonyl]-3-(pyridin-4-yl)-1H-1,2,4-triazol-5-amine]", "IC50": "< 100"},
      {"smiles": "O=C(c1cccc2ccccc12)n1nc(-c2ccccn2)nc1NCc1ccccc1", "note": "[Cmpd 269, N-benzyl-1-[(naphthalen-1-yl)carbonyl]-3-(pyridin-2-yl)-1H-1,2,4-triazol-5-amine]", "IC50": "< 100"},
      {"smiles": "O=C(c1cccc2ccccc12)n1nc(-c2ccccn2)cc1NCc1ccccc1", "note": "[Cmpd 270, N-benzyl-1-[(naphthalen-1-yl)carbonyl]-3-(pyridin-2-yl)-1H-pyrazol-5-amine]", "IC50": "> 1000"}
    ]}
  ]
}
